Measurements: US6087119A, “Method for determining the catalytic activity of factor IXa” (Roche Diagnostics GmbH, priority 1996, dated 2000)

Legend:
Format in all cases: biochemical
native FIXa (human) = native FIXa (human) (Homo sapiens, UniProt P00740); assay: Determination of the dissociation constant Ki according to DIXON, native FIXa; design: 0.14 μmol/l native FIXa (human); details: pH 8.5, 33% ethylene glycol; for 1/V: 0.07 μmol/l native FIXa
Method: (§1) Determination of the Dissociation Constant Ki According to the Method of DIXON
(§2) 42 mmol/l Tris-HCl, pH 8.5
(§3) inhibitor in stepped concentrations (0, 20.4 and 40.8 μmol/l) […]
0.07 μmol/l native FIXa (human)
(§4) TIPPS-(3-Am)Phe-iNip-OH was used as the inhibitor and the inhibitory effect was determined as an example for two substrates under optimal conditions (pH 8.5, 33% ethylene glycol).

rFIXa (human) [1] = biological target: T1, rFIXa (human) (Homo sapiens, UniProt P00740); assay: Influence of known protease inhibitors on the activity of rFIXa; design: coding for the FIX protease domain from amino acid position 181 to 415; Met (ATG start codon) (N); made in house
Method: Specific FIXa inhibitors can be identified by the inhibition of FIXa activity. For this purpose the FIXa activity is determined with a substrate of the R-D-Xxx-Gly-Arg-pNA type (Xxx=hydrophobic amino acid) in the absence and presence of the substance to be tested or of a substance mixture and the percentage inhibition is calculated from the quotients. The inhibition constant Ki is determined from the inhibition kinetics. The measurement signal is amplified by the presence of high concentrations of certain alcohols (preferably ethylene glycol).
200 μl buffer (100 mmol/l Tris-HCl, 100 mmol/l NaCl, 5 mmol/l CaCl2, 20-40% alcohol, pH 7-9) the buffer contains the inhibitor at various concentrations […]
The reaction can also be terminated after 5-10 min by stopping with acetic acid (25 μl, 50%), the absorbance is determined at 405 nm against a reagent blank.
Influence of Known Protease Inhibitors on the Activity of rFIXa Using Different pHs, Alcohols and Alcohol Concentrations 42 mmol/l Tris-HCl, pH 7.4 or 8.5 substrate MeSO2 -D-CHG-Gly-Arg-pNA (1.02 mmol/l) […]
inhibitor at stepped concentrations (4.1-163 μmol/l)
Known synthetic inhibitors of the 3-amidinophenylalanine type were used as inhibitors (Sturzebecher et al, J. Enzyme. Inhibition 9 (1995) 87 and WO 92/08709) (1991)). The inhibitory effect was examined at a low and at a high alcohol concentration as an example.

rFIXa (human) [2] = biological target: T1, rFIXa (human); assay: Determination of the dissociation constant Ki according to DIXON, rFIXa; design: coding for the FIX protease domain from amino acid position 181 to 415; Met (ATG start codon) (N); made in house; details: pH 8.5, 33% ethylene glycol
Method: as §1, §2, §3
0.14 μmol/l rFIXa (human) […]
as §4

T1 sequence (P00740 227-461 limits assumed): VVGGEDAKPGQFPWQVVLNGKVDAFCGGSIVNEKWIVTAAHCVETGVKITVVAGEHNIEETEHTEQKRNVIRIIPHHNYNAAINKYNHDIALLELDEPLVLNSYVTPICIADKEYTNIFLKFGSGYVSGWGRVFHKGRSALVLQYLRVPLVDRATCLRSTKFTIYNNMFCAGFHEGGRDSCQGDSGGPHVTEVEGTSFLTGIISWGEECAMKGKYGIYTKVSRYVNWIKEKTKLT
T1 sequence (P00740 131-226 limits assumed): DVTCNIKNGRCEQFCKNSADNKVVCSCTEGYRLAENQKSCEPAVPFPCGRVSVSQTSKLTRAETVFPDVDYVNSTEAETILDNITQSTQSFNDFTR
native FIXa (human), sequence (P00740 227-461 limits assumed): as the sequence (P00740 227-461 limits assumed) above
native FIXa (human), sequence (P00740 47-191 partner limits assumed): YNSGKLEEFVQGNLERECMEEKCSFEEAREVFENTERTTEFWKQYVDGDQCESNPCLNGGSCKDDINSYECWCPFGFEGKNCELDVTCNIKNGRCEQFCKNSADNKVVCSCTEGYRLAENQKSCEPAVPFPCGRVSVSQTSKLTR

1/V (native FIXa (human); inhibitor 20.4 μmol/l, MeSO2-D-HHT-Gly-Arg-pNA 0.25 μmol/l): 129 min/mA
1/V (native FIXa (human); inhibitor 20.4 μmol/l, MeSO2-D-HHT-Gly-Arg-pNA 0.51 μmol/l): 77.5 min/mA
1/V (native FIXa (human); inhibitor 20.4 μmol/l, MeSO2-D-HHT-Gly-Arg-pNA 1.02 μmol/l): 29.5 min/mA
1/V (native FIXa (human); inhibitor 40.8 μmol/l, MeSO2-D-HHT-Gly-Arg-pNA 0.25 μmol/l): 255 min/mA
1/V (native FIXa (human); inhibitor 40.8 μmol/l, MeSO2-D-HHT-Gly-Arg-pNA 0.51 μmol/l): 154 min/mA
1/V (native FIXa (human); inhibitor 40.8 μmol/l, MeSO2-D-HHT-Gly-Arg-pNA 1.02 μmol/l): 53.2 min/mA
Ki (native FIXa (human); native FIXa, substrate MeSO2-D-HHT-Gly-Arg-pNA): 9 µM
Inhibition of the activity of factor IXa (in %) (rFIXa (human) [1]; inhibitor 4.1 μmol/l, pH 7.4, 4.1% ethanol, 0.57 μmol/l rFIXa): 89.5%
Inhibition of the activity of factor IXa (in %) (rFIXa (human) [1]; inhibitor 4.1 μmol/l, pH 7.4, 33% ethylene glycol, 0.057 μmol/l rFIXa): 86.9%
Inhibition of the activity of factor IXa (in %) (rFIXa (human) [1]; inhibitor 4.1 μmol/l, pH 8.5, 4.1% ethanol, […] rFIXa): 90.6%
Inhibition of the activity of factor IXa (in %) (rFIXa (human) [1]; inhibitor 4.1 μmol/l, pH 8.5, 33% ethylene glycol, […] rFIXa): 85.6%
Inhibition of the activity of factor IXa (in %) (rFIXa (human) [1]; inhibitor 8.2 μmol/l, pH 7.4, 4.1% ethanol, 0.57 μmol/l rFIXa): 87.6%
Inhibition of the activity of factor IXa (in %) (rFIXa (human) [1]; inhibitor 8.2 μmol/l, pH 7.4, 33% ethylene glycol, 0.057 μmol/l rFIXa): 79.4%
Inhibition of the activity of factor IXa (in %) (rFIXa (human) [1]; inhibitor 8.2 μmol/l, pH 8.5, 4.1% ethanol, […] rFIXa): 85.2%
Inhibition of the activity of factor IXa (in %) (rFIXa (human) [1]; inhibitor 8.2 μmol/l, pH 8.5, 33% ethylene glycol, […] rFIXa): 72.8%
Inhibition of the activity of factor IXa (in %) (rFIXa (human) [1]; inhibitor 16.3 μmol/l, pH 7.4, 4.1% ethanol, 0.57 μmol/l rFIXa): 76.2%
Inhibition of the activity of factor IXa (in %) (rFIXa (human) [1]; inhibitor 16.3 μmol/l, pH 7.4, 33% ethylene glycol, 0.057 μmol/l rFIXa): 61.7%
Inhibition of the activity of factor IXa (in %) (rFIXa (human) [1]; inhibitor 16.3 μmol/l, pH 8.5, 4.1% ethanol, […] rFIXa): 74.8%
Inhibition of the activity of factor IXa (in %) (rFIXa (human) [1]; inhibitor 16.3 μmol/l, pH 8.5, 33% ethylene glycol, […] rFIXa): 58.0%
Inhibition of the activity of factor IXa (in %) (rFIXa (human) [1]; inhibitor 40.8 μmol/l, pH 7.4, 4.1% ethanol, 0.57 μmol/l rFIXa): 55.8%
Inhibition of the activity of factor IXa (in %) (rFIXa (human) [1]; inhibitor 40.8 μmol/l, pH 7.4, 33% ethylene glycol, 0.057 μmol/l rFIXa): 38.9%
Inhibition of the activity of factor IXa (in %) (rFIXa (human) [1]; inhibitor 40.8 μmol/l, pH 8.5, 4.1% ethanol, […] rFIXa): 55.2%
Inhibition of the activity of factor IXa (in %) (rFIXa (human) [1]; inhibitor 40.8 μmol/l, pH 8.5, 33% ethylene glycol, […] rFIXa): 33.6%
Inhibition of the activity of factor IXa (in %) (rFIXa (human) [1]; inhibitor 81.6 μmol/l, pH 7.4, 4.1% ethanol, 0.57 μmol/l rFIXa): 36.3%
Inhibition of the activity of factor IXa (in %) (rFIXa (human) [1]; inhibitor 81.6 μmol/l, pH 7.4, 33% ethylene glycol, 0.057 μmol/l rFIXa): 21.2%
Inhibition of the activity of factor IXa (in %) (rFIXa (human) [1]; inhibitor 81.6 μmol/l, pH 8.5, 4.1% ethanol, […] rFIXa): 35.3%
Inhibition of the activity of factor IXa (in %) (rFIXa (human) [1]; inhibitor 81.6 μmol/l, pH 8.5, 33% ethylene glycol, […] rFIXa): 20.7%
Inhibition of the activity of factor IXa (in %) (rFIXa (human) [1]; inhibitor 163 μmol/l, pH 7.4, 4.1% ethanol, 0.57 μmol/l rFIXa): 23.8%
Inhibition of the activity of factor IXa (in %) (rFIXa (human) [1]; inhibitor 163 μmol/l, pH 7.4, 33% ethylene glycol, 0.057 μmol/l rFIXa): 15.0%
Inhibition of the activity of factor IXa (in %) (rFIXa (human) [1]; inhibitor 163 μmol/l, pH 8.5, 4.1% ethanol, […] rFIXa): 20.8%
Inhibition of the activity of factor IXa (in %) (rFIXa (human) [1]; inhibitor 163 μmol/l, pH 8.5, 33% ethylene glycol, […] rFIXa): 15.8%
1/V (rFIXa (human) [2]; inhibitor 20.4 μmol/l, MeSO2-D-CHG-Gly-Arg-pNA 0.25 μmol/l, 0.057 μmol/l rFIXa): 78.1 min/mA
1/V (rFIXa (human) [2]; inhibitor 20.4 μmol/l, MeSO2-D-CHG-Gly-Arg-pNA 0.51 μmol/l, 0.057 μmol/l rFIXa): 55.6 min/mA
1/V (rFIXa (human) [2]; inhibitor 20.4 μmol/l, MeSO2-D-CHG-Gly-Arg-pNA 1.02 μmol/l, 0.057 μmol/l rFIXa): 23.8 min/mA
1/V (rFIXa (human) [2]; inhibitor 20.4 μmol/l, MeSO2-D-HHT-Gly-Arg-pNA 0.25 μmol/l, 0.14 μmol/l rFIXa): 69.4 min/mA
1/V (rFIXa (human) [2]; inhibitor 20.4 μmol/l, MeSO2-D-HHT-Gly-Arg-pNA 0.51 μmol/l, 0.14 μmol/l rFIXa): 43.5 min/mA
1/V (rFIXa (human) [2]; inhibitor 20.4 μmol/l, MeSO2-D-HHT-Gly-Arg-pNA 1.02 μmol/l, 0.14 μmol/l rFIXa): 16.6 min/mA
1/V (rFIXa (human) [2]; inhibitor 40.8 μmol/l, MeSO2-D-CHG-Gly-Arg-pNA 0.25 μmol/l, 0.057 μmol/l rFIXa): 153 min/mA
1/V (rFIXa (human) [2]; inhibitor 40.8 μmol/l, MeSO2-D-CHG-Gly-Arg-pNA 0.51 μmol/l, 0.057 μmol/l rFIXa): 109 min/mA
1/V (rFIXa (human) [2]; inhibitor 40.8 μmol/l, MeSO2-D-CHG-Gly-Arg-pNA 1.02 μmol/l, 0.057 μmol/l rFIXa): 44.6 min/mA
1/V (rFIXa (human) [2]; inhibitor 40.8 μmol/l, MeSO2-D-HHT-Gly-Arg-pNA 0.25 μmol/l, 0.14 μmol/l rFIXa): 137 min/mA
1/V (rFIXa (human) [2]; inhibitor 40.8 μmol/l, MeSO2-D-HHT-Gly-Arg-pNA 0.51 μmol/l, 0.14 μmol/l rFIXa): 90.9 min/mA
1/V (rFIXa (human) [2]; inhibitor 40.8 μmol/l, MeSO2-D-HHT-Gly-Arg-pNA 1.02 μmol/l, 0.14 μmol/l rFIXa): 31.2 min/mA
Ki (rFIXa (human) [2]; rFIXa, substrate MeSO2-D-CHG-Gly-Arg-pNA): 16 µM
Ki (rFIXa (human) [2]; recombinant FIXa, substrate MeSO2-D-HHT-Gly-Arg-pNA): 12 µM
SMILES: CC(C)c1cc(C(C)C)c(S(=O)(=O)NC(Cc2cccc(C(=N)N)c2)C(=O)N2CCC(C(=O)O)CC2)c(C(C)C)c1 (stereo not drawn) [TIPPS-(3-Am)Phe-iNip-OH, Nα-(2,4,6-triisopropylbenzenesulfonyl)-3-amidino-(D,L)-phenylalanine-isonipecotic acid]
